# PubChem BioAssay (NCI)
#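 Grown in 96-well plates, cells were treated for 48 hours with each compound at five concentrations. Insufficient inhibition: endpoint recorded as highest concentration tested. TGI denotes the concentration required for complete inhibition of growth.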
# Assays:
# Assay in all cases: NCI-60 cell line screen, 48 h
# COLO 205 colon = system: COLO 205 colon
# HOP-92 NSCLC = system: HOP-92 NSCLC
# CAKI-1 renal = system: CAKI-1 renal
# OVCAR-8 ovarian = system: OVCAR-8 ovarian
# SF-268 CNS = system: SF-268 CNS
# SR leukemia = system: SR leukemia
# MALME-3M melanoma = system: MALME-3M melanoma
# SNB-75 CNS = system: SNB-75 CNS
# RXF 393 renal = system: RXF 393 renal
# CCRF-CEM leukemia = system: CCRF-CEM leukemia
# SF-539 CNS = system: SF-539 CNS
# SK-MEL-28 melanoma = system: SK-MEL-28 melanoma
# NCI/ADR-RES ovarian = system: NCI/ADR-RES ovarian
# A498 renal = system: A498 renal
# OVCAR-3 ovarian = system: OVCAR-3 ovarian
# NCI-H522 lung = system: NCI-H522 lung
# NCI-H23 lung = system: NCI-H23 lung
# UACC-257 melanoma = system: UACC-257 melanoma
# A549 NSCLC = system: A549 NSCLC
# MCF7 breast = system: MCF7 breast
SMILES,TGI (COLO 205 colon) [µM],TGI (HOP-92 NSCLC) [µM],TGI (CAKI-1 renal) [µM],TGI (OVCAR-8 ovarian) [µM],TGI (SF-268 CNS) [µM],TGI (SR leukemia) [µM],TGI (MALME-3M melanoma) [µM],TGI (SNB-75 CNS) [µM],TGI (RXF 393 renal) [µM],TGI (CCRF-CEM leukemia) [µM],TGI (SF-539 CNS) [µM],TGI (SK-MEL-28 melanoma) [µM],TGI (NCI/ADR-RES ovarian) [µM],TGI (A498 renal) [µM],TGI (OVCAR-3 ovarian) [µM],TGI (NCI-H522 lung) [µM],TGI (NCI-H23 lung) [µM],TGI (UACC-257 melanoma) [µM],TGI (A549 NSCLC) [µM],TGI (MCF7 breast) [µM]
CC(=NNC(=S)Nc1cccc(C)c1)c1cccc(C(C)=NNC(=S)Nc2cccc(C)c2)n1,38.5,63.2,71.1,76.3,> 100,40.8,49.2,69.2,61.1,> 100,46.1,> 100,76.6,61.6,26.8,57.9,> 100,0.0745,87.1,77.7
COC(=O)c1ccccc1NC(=NC1CCCCCC1)NS(=O)(=O)c1ccc(C)cc1,> 100,> 100,> 100,> 100,> 100,> 100,–,> 100,> 100,> 100,> 100,> 100,> 100,> 100,> 100,> 100,> 100,> 100,> 100,> 100
N#Cc1cc([N+](=O)[O-])ccc1NC(=O)/C(=N\NC(=O)c1ccncc1)C(c1cnc2ccc([N+](=O)[O-])cc2n1)[N+](=O)[O-] (stereo not drawn),17.9,22.6,17.9,9.83,11.6,46.8,2.61,3.83,10.8,25.6,3.63,4.81,37,17.7,4.29,3.46,2.65,3.05,15.8,3.37
COc1ccc(-c2c3c(n(C4OC(COC(C)=O)C(OC(C)=O)C(OC(C)=O)C4OC(C)=O)c(=S)c2C#N)CCC3)cc1 (stereo not drawn),> 100,49.3,> 100,–,> 100,> 100,> 100,> 100,> 100,> 100,> 100,> 100,> 100,–,> 100,–,> 100,> 100,> 100,> 100
Cc1cc(C)c(O)c(CN2CCN(C(C)C)CCN(C(C)C)CC2)c1,60.8,65.2,> 100,94.9,> 100,64,31.9,> 100,45,83.9,30.8,72.8,> 100,> 100,> 100,68,–,35.5,> 100,> 100
C=C1CCCC(C)(C)C1CCC1(C)CCC(C(C)C(=O)OC)OO1 (stereo not drawn),13.3,2.44,0.749,> 19.8,7.77,9.78,> 25,7.56,11.7,> 18,> 22.2,> 25,> 18.4,> 15.3,> 25,12.6,8.99,> 25,4.15,> 25
CCOC(=O)Cn1c(=O)c2nc(SC)sc2n(-c2ccccc2)c1=S,> 100,21,–,95.8,> 100,> 100,60.2,12.5,52.2,> 100,31.6,> 100,> 100,–,97.7,> 100,> 100,> 100,> 100,> 100
CCOC(=O)C1(N)CCc2[nH][nH]c(=O)c2C1 (stereo not drawn),> 100,> 100,> 100,> 100,–,> 100,> 100,> 100,–,> 100,> 100,> 100,> 100,> 100,> 100,> 100,> 100,> 100,> 100,> 100
CC(C)(C)OC(=O)NC(Cc1ccc(O)cn1)C(=O)O (stereo not drawn),> 100,> 100,> 100,> 100,> 100,> 100,> 100,> 100,> 100,–,> 100,> 100,> 100,> 100,> 100,> 100,> 100,> 100,> 100,> 100
C=C(C)[C@@]1(O)CCCC[C@@H]1CC(Sc1ccccc1)Sc1ccccc1,31,18.9,28.8,38.6,31.1,34.8,26.2,30,29.2,> 100,–,38.6,34,68.4,–,26.5,29.9,48.7,34.4,53.9
C/C=C1\CC2C(=O)CCC2C2c3ccccc3OC12 (stereo not drawn),> 100,> 100,> 100,> 100,> 100,> 100,> 100,> 100,> 100,> 100,> 100,> 100,> 100,–,> 100,> 100,> 100,> 100,> 100,> 100
O=C(CC(C(=O)c1cccs1)c1ccsc1)c1ccccc1 (stereo not drawn),> 100,> 100,> 100,> 100,> 100,> 100,–,> 100,> 100,> 100,> 100,> 100,80.4,> 100,> 100,> 100,85.4,> 100,66.2,99.1
Cc1ccc(N=NC(=Nc2ccc(Cl)cc2)c2ccc(N(CCC#N)CCC#N)cc2)cc1,55.6,> 100,> 100,> 100,> 100,> 100,–,> 100,> 100,> 100,> 100,> 100,> 100,> 100,> 100,66,> 100,76.1,> 100,> 100
CC(=O)OCC1OC(n2c3c(cc(C#N)c2=S)CCC3)C(OC(C)=O)C(OC(C)=O)C1OC(C)=O (stereo not drawn),> 100,> 100,> 100,> 100,> 100,> 100,> 100,> 100,> 100,> 100,> 100,> 100,> 100,> 100,–,> 100,> 100,> 100,> 100,> 100
CNC(=O)NCCN1CC2CCC(CC2)C1,> 10,–,> 10,> 10,> 10,> 10,> 10,> 10,> 10,> 10,> 10,> 10,> 10,> 10,> 10,> 10,> 10,> 10,> 10,> 10
O=C(O)c1nc2ccc(C(F)(F)F)cc2nc1NCc1ccc(Cl)c(Cl)c1,37.4,32.2,36.9,32.8,–,36.5,–,39.1,–,> 100,36.6,33.7,42.7,34.6,24.6,–,32.4,54.3,29.7,45.3
O=C(/C=C/c1ccc(C(F)(F)F)cc1)c1c([O-])on[n+]1-c1ccccc1,4.91,3.06,0.879,5.38,> 26.2,0.846,> 100,5.87,2.68,0.188,3.98,2.89,4.18,14.8,3.37,–,10,6.93,12.3,> 34.5
COC(=O)C(C)(C)[C@@H]1OC(=O)N(S(=O)(=O)c2c(C)cc(C)cc2C)[C@H]1C(C)C,> 100,98.2,–,> 100,> 100,> 100,> 100,> 100,> 100,> 100,> 100,> 100,> 100,–,> 100,> 100,> 100,> 100,> 100,> 100
Cc1ccc(-c2n[nH]c(=O)n2NC(=O)c2ccccc2C(=O)O)cc1,–,> 100,> 100,> 100,> 100,> 100,> 100,> 100,> 100,–,> 100,> 100,> 100,–,> 100,> 100,> 100,> 100,> 100,> 100
